# According to patent US20240101549A1, “N-(2-(4-CYANOTHIAZOLIDIN-3-YL)-2-OXOETHYL)-QUINOLINE-4-CARBOXAMIDES” (AstraZeneca AB, priority 2020, published 2024):
# Biological target: FAP (Macaca fascicularis, UniProt A0A2K5VGH4)
# Assay: FAP plasma inhibition assay, cynomolgus plasma
# Format: biochemical
# Settings: cynomolgus plasma diluted 1:40, 75 μM Ala-Pro-AMC; n = 1; read-out: FAP Cyno Plasma IC50
# Description: D. FAP Plasma Inhibition Assay This assay was adapted from the method described in Example 237 for detection of FAP target engagement enzyme activity in plasma. […] Compounds were tested using 10 CR, 3 fold dilution series from 500 nM FAC. Two replicates for each assay point were run on the same plate. A fluorescence blank read was taken before substrate addition. […] Plates were incubated for 40 min at rt in the dark. […] IC50 values were determined by plotting % inhibition versus log compound concentration.
# FAP, sequence (A0A2K5VGH4 entry or part of it): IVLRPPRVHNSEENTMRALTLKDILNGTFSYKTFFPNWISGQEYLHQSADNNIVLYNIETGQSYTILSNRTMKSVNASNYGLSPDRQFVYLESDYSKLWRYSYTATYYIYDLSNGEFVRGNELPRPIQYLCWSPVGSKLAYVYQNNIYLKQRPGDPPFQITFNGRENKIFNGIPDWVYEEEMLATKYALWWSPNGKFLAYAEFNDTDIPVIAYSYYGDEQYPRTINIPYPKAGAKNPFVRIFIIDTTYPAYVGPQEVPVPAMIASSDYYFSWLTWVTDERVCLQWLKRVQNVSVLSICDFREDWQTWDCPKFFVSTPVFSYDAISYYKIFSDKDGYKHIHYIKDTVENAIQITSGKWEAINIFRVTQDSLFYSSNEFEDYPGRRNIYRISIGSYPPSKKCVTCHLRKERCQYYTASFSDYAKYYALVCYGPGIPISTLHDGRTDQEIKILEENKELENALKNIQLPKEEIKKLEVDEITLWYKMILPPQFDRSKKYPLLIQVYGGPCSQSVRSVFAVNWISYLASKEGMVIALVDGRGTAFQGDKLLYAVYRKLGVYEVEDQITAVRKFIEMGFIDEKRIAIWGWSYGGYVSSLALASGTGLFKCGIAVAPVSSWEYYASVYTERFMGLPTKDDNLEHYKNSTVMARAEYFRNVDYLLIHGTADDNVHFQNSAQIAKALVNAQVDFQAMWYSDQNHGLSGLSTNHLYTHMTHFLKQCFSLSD
row,Structure (SMILES),IC50 [nM]
1,"N#C[C@@H]1CSCN1C(=O)CNC(=O)c1c(F)cnc2ccc(N3CCOCC3)cc12 [Example 2, (R)—N-(2-(4-Cyanothiazolidin-3-yl)-2-oxoethyl)-3-fluoro-6-morpholino-quinoline-4-carboxamide]",9.2
2,"COC1CCN(c2ccc3nccc(C(=O)NCC(=O)N4CSC[C@H]4C#N)c3c2)CC1 [Example 8, (R)—N-(2-(4-Cyanothiazolidin-3-yl)-2-oxoethyl)-6-(4-methoxypiperidin-1-yl)quinoline-4-carboxamide]",0.2
3,"CC1(C)OCCN(c2ccc3nccc(C(=O)NCC(=O)N4CSC[C@H]4C#N)c3c2)C1=O [Example 16, (R)—N-(2-(4-Cyanothiazolidin-3-yl)-2-oxoethyl)-6-(2,2-dimethyl-3-oxomorpholino)quinoline-4-carboxamide]",0.2
4,"CC1(CF)CN(c2ccc3nccc(C(=O)NCC(=O)N4CSC[C@H]4C#N)c3c2)C1 [Example 27, (R)—N-(2-(4-Cyanothiazolidin-3-yl)-2-oxoethyl)-6-(3-(fluoromethyl)-3-methylazetidin-1-yl)quinoline-4-carboxamide]",0.3
5,"N#C[C@@H]1CSCN1C(=O)CNC(=O)c1ccnc2ccc(N3CC(C(F)F)C3)cc12 [Example 28, (R)—N-(2-(4-Cyanothiazolidin-3-yl)-2-oxoethyl)-6-(3-(difluoromethyl)-azetidin-1-yl)quinoline-4-carboxamide]",0.3
6,"C[C@@H]1CN(c2ccc3nccc(C(=O)NCC(=O)N4CSC[C@H]4C#N)c3c2)C[C@H](C)O1 [Example 68, N-(2-((R)-4-Cyanothiazolidin-3-yl)-2-oxoethyl)-6-((2R,6S)-2,6-dimethylmorpholino)-quinoline-4-carboxamide]",0.3
7,"N#C[C@@H]1CSCN1C(=O)CNC(=O)c1ccnc2ccc(N3CCO[C@H](CF)C3)cc12 [Example 71, N-(2-((R)-4-Cyanothiazolidin-3-yl)-2-oxoethyl)-6-((S)-2-(fluoromethyl)morpholino)-quinoline-4-carboxamide]",0.2
8,"C[C@@H]1CN(c2ccc3nccc(C(=O)NCC(=O)N4CSC[C@H]4C#N)c3c2)CCO1 [Example 72, N-(2-((R)-4-Cyanothiazolidin-3-yl)-2-oxoethyl)-6-((R)-2-methylmorpholino)-quinoline-4-carboxamide]",0.2
9,"C[C@@H]1OCCN(c2ccc3nccc(C(=O)NCC(=O)N4CSC[C@H]4C#N)c3c2)[C@H]1C [Example 82, N-(2-((R)-4-Cyanothiazolidin-3-yl)-2-oxoethyl)-6-((2S,3S)-2,3-dimethyl-morpholino)quinoline-4-carboxamide]",0.3
10,"CC1(C)CN(c2ccc3nccc(C(=O)NCC(=O)N4CSC[C@H]4C#N)c3c2)CCO1 [Example 88, (R)—N-(2-(4-Cyanothiazolidin-3-yl)-2-oxoethyl)-6-(2,2-dimethyl-morpholino)quinoline-4-carboxamide]",0.2
11,"N#C[C@@H]1CSCN1C(=O)CNC(=O)c1ccnc2ccc(N3C4CCC3COC4)cc12 [Example 98, 6-(3-Oxa-8-azabicyclo[3.2.1]octan-8-yl)-N-(2-((R)-4-cyanothiazolidin-3-yl)-2-oxoethyl)quinoline-4-carboxamide]",0.3
12,"CC(F)(F)C1CN(c2ccc3nccc(C(=O)NCC(=O)N4CSC[C@H]4C#N)c3c2)C1 [Example 147, (R)—N-(2-(4-Cyanothiazolidin-3-yl)-2-oxoethyl)-6-(3-(1,1-difluoroethyl)-azetidin-1-yl)quinoline-4-carboxamide]",0.1
13,"COC1(C)CN(c2ccc3nccc(C(=O)NCC(=O)N4CSC[C@H]4C#N)c3c2)C1 [Example 151, (R)—N-(2-(4-Cyanothiazolidin-3-yl)-2-oxoethyl)-6-(3-methoxy-3-methylazetidin-1-yl)quinoline-4-carboxamide]",0.3
14,"N#C[C@@H]1CSCN1C(=O)CNC(=O)c1ccnc2ccc(N3CC(F)(CF)C3)cc12 [Example 157, (R)—N-(2-(4-Cyanothiazolidin-3-yl)-2-oxoethyl)-6-(3-fluoro-3-(fluoromethyl)azetidin-1-yl)quinoline-4-carboxamide]",0.4
15,"CC(=O)NCC1(C)CN(c2ccc3nccc(C(=O)NCC(=O)N4CSC[C@H]4C#N)c3c2)C1 [Example 181, (R)-6-(3-(Acetamidomethyl)-3-methylazetidin-1-yl)-N-(2-(4-cyano-thiazolidin-3-yl)-2-oxoethyl)quinoline-4-carboxamide]",0.5
16,"CN1CCC(F)(c2ccc3nccc(C(=O)NCC(=O)N4CSC[C@H]4C#N)c3c2)CC1 [Example 195, (R)—N-(2-(4-Cyanothiazolidin-3-yl)-2-oxoethyl)-6-(4-fluoro-1-methyl-piperidin-4-yl)quinoline-4-carboxamide]",1
17,"N#C[C@@H]1CSCN1C(=O)CNC(=O)c1ccnc2ccc(N3CCC(F)CC3)cc12 [Example 205, (R)—N-(2-(4-Cyanothiazolidin-3-yl)-2-oxoethyl)-6-(4-fluoropiperidin-1-yl)quinoline-4-carboxamide]",0.3

# Now from value to compound:
row,IC50 [nM],Structure (SMILES)
1,0.5,"CC1(C)CCN(c2ccc3nccc(C(=O)NCC(=O)N4CSC[C@H]4C#N)c3c2)C(=O)O1 [Example 112, (R)—N-(2-(4-Cyanothiazolidin-3-yl)-2-oxoethyl)-6-(6,6-dimethyl-2-oxo-1,3-oxazinan-3-yl)quinoline-4-carboxamide]"
2,0.4,"N#C[C@@H]1CSCN1C(=O)CNC(=O)c1ccnc2ccc(N3CC(CF)C3)cc12 [Example 113, (R)—N-(2-(4-Cyanothiazolidin-3-yl)-2-oxoethyl)-6-(3-(fluoromethyl)azetidin-1-yl)quinoline-4-carboxamide]"
3,0.3,"CC1(F)CN(c2ccc3nccc(C(=O)NCC(=O)N4CSC[C@H]4C#N)c3c2)C1 [Example 24, (R)—N-(2-(4-Cyanothiazolidin-3-yl)-2-oxoethyl)-6-(3-fluoro-3-methyl-azetidin-1-yl)quinoline-4-carboxamide]"
4,0.3,"N#C[C@@H]1CSCN1C(=O)CNC(=O)c1ccnc2ccc(N3C[C@@H](F)[C@@H](F)C3)cc12 [Example 50, N-(2-((R)-4-Cyanothiazolidin-3-yl)-2-oxoethyl)-6-((3R,4S)-3,4-difluoropyrrolidin-1-yl)quinoline-4-carboxamide]"
5,0.3,"CC(=O)N1CC2(C1)CN(c1ccc3nccc(C(=O)NCC(=O)N4CSC[C@H]4C#N)c3c1)C2 [Example 184, (R)-6-(6-Acetyl-2,6-diazaspiro[3.3]heptan-2-yl)-N-(2-(4-cyanothiazolidin-3-yl)-2-oxoethyl)quinoline-4-carboxamide]"
6,0.2,"N#C[C@@H]1CSCN1C(=O)CNC(=O)c1ccnc2ccc(N3CCO[C@@H](CF)C3)cc12 [Example 69, N-(2-((R)-4-Cyanothiazolidin-3-yl)-2-oxoethyl)-6-((R)-2-(fluoromethyl)morpholino)-quinoline-4-carboxamide]"
7,0.2,"C[C@@H]1CN(c2ccc3nccc(C(=O)NCC(=O)N4CSC[C@H]4C#N)c3c2)C[C@@H](C)O1 [Example 70, N-(2-((R)-4-Cyanothiazolidin-3-yl)-2-oxoethyl)-6-((2R,6R)-2,6-dimethylmorpholino)-quinoline-4-carboxamide]"
8,0.2,"N#C[C@@H]1CSCN1C(=O)CNC(=O)c1ccnc2ccc(N3CCO[C@H](C(F)(F)F)C3)cc12 [Example 74, N-(2-((R)-4-Cyanothiazolidin-3-yl)-2-oxoethyl)-6-((S)-2-(trifluoromethyl)-morpholino)quinoline-4-carboxamide]"
9,0.2,"C[C@H]1COCCN1c1ccc2nccc(C(=O)NCC(=O)N3CSC[C@H]3C#N)c2c1 [Example 102, N-(2-((R)-4-Cyanothiazolidin-3-yl)-2-oxoethyl)-6-((S)-3-methyl-morpholino)quinoline-4-carboxamide]"
10,0.2,"N#C[C@@H]1CSCN1C(=O)CNC(=O)c1ccnc2ccc(N3CC4(C3)OCCO4)cc12 [Example 163, (R)—N-(2-(4-Cyanothiazolidin-3-yl)-2-oxoethyl)-6-(5,8-dioxa-2-azaspiro[3.4]octan-2-yl)quinoline-4-carboxamide]"

# Tested on: not listed separately
# Assay: Caco-2 cell permeability
# Format: in vitro ADME
# Settings: human, Caco-2, AB intrinsic; n = 1 or average of n = 2-4; read-out: Caco2 AB Intrinsic Papp
# Description: Caco-2 cell permeability was measured as described in Mol Pharm 2017, 14, 1601.
row,Structure (SMILES),Papp A→B [×10⁻⁶ cm/s]
1,"N#C[C@@H]1CSCN1C(=O)CNC(=O)c1c(F)cnc2ccc(N3CCOCC3)cc12 [Example 2, (R)—N-(2-(4-Cyanothiazolidin-3-yl)-2-oxoethyl)-3-fluoro-6-morpholino-quinoline-4-carboxamide]",23
2,"N#C[C@@H]1CSCN1C(=O)CNC(=O)c1ccnc2ccc(N3CC(C(F)F)C3)cc12 [Example 28, (R)—N-(2-(4-Cyanothiazolidin-3-yl)-2-oxoethyl)-6-(3-(difluoromethyl)-azetidin-1-yl)quinoline-4-carboxamide]",21
3,"COCC1(C)CN(c2ccc3nccc(C(=O)NCC(=O)N4CSC[C@H]4C#N)c3c2)C1 [Example 29, (R)—N-(2-(4-Cyanothiazolidin-3-yl)-2-oxoethyl)-6-(3-(methoxymethyl)-3-methylazetidin-1-yl)quinoline-4-carboxamide]",26
4,"CO[C@@H]1CN(c2ccc3nccc(C(=O)NCC(=O)N4CSC[C@H]4C#N)c3c2)[C@H]1C [Example 30, N-(2-((R)-4-Cyanothiazolidin-3-yl)-2-oxoethyl)-6-((2S,3R)-3-methoxy-2-methylazetidin-1-yl)quinoline-4-carboxamide]",15
5,"CC1(C)CN(c2ccc3nccc(C(=O)NCC(=O)N4CSC[C@H]4C#N)c3c2)CCO1 [Example 88, (R)—N-(2-(4-Cyanothiazolidin-3-yl)-2-oxoethyl)-6-(2,2-dimethyl-morpholino)quinoline-4-carboxamide]",13
6,"N#C[C@@H]1CSCN1C(=O)CNC(=O)c1ccnc2ccc(N3C4CCC3COC4)cc12 [Example 98, 6-(3-Oxa-8-azabicyclo[3.2.1]octan-8-yl)-N-(2-((R)-4-cyanothiazolidin-3-yl)-2-oxoethyl)quinoline-4-carboxamide]",8.6
7,"CC1(C)Cc2c(-c3ccc4nccc(C(=O)NCC(=O)N5CSC[C@H]5C#N)c4c3)cnn2C1 [Example 123, (R)—N-(2-(4-Cyanothiazolidin-3-yl)-2-oxoethyl)-6-(5,5-dimethyl-5,6-dihydro-4H-pyrrolo[1,2-b]pyrazol-3-yl)quinoline-4-carboxamide]",14
8,"CC1(O)CN(c2ccc3nccc(C(=O)NCC(=O)N4CSC[C@H]4C#N)c3c2)C1 [Example 165, (R)—N-(2-(4-Cyanothiazolidin-3-yl)-2-oxoethyl)-6-(3-hydroxy-3-methyl-azetidin-1-yl)quinoline-4-carboxamide]",0.51
9,"CC1(CS(C)(=O)=O)CN(c2ccc3nccc(C(=O)NCC(=O)N4CSC[C@H]4C#N)c3c2)C1 [Example 188, (R)—N-(2-(4-Cyanothiazolidin-3-yl)-2-oxoethyl)-6-(3-methyl-3-((methylsulfonyl)methyl)azetidin-1-yl)quinoline-4-carboxamide]",0.28

# Now from value to compound:
row,Papp A→B [×10⁻⁶ cm/s],Structure (SMILES)
1,20,"N#C[C@@H]1CSCN1C(=O)CNC(=O)c1ccnc2ccc(N3CC(CF)C3)cc12 [Example 113, (R)—N-(2-(4-Cyanothiazolidin-3-yl)-2-oxoethyl)-6-(3-(fluoromethyl)azetidin-1-yl)quinoline-4-carboxamide]"
2,0.1,"CC(=O)N1CC2(C1)CN(c1ccc3nccc(C(=O)NCC(=O)N4CSC[C@H]4C#N)c3c1)C2 [Example 184, (R)-6-(6-Acetyl-2,6-diazaspiro[3.3]heptan-2-yl)-N-(2-(4-cyanothiazolidin-3-yl)-2-oxoethyl)quinoline-4-carboxamide]"
